Experimental data as given in publication PMC3446968 (PLoS ONE, 2012).
Read-outs that look alike come from different tables or passages of the source. Values belong to the molecule of their own block, whether it stands above or below them. No end group written: not given here.

Key:
human Sirt5 [1] = target: T1, human Sirt5 (Homo sapiens, UniProt Q9NXA8); test: Binding analysis by microscale thermophoresis, Sirt5
T1 construct: (residues 34- 302); 6x His tag with TEV protease cleavage site (N); made in house; host or cells: E. coli BL21DE3 Rosetta 2
T1 sequence (Q9NXA8 34-302): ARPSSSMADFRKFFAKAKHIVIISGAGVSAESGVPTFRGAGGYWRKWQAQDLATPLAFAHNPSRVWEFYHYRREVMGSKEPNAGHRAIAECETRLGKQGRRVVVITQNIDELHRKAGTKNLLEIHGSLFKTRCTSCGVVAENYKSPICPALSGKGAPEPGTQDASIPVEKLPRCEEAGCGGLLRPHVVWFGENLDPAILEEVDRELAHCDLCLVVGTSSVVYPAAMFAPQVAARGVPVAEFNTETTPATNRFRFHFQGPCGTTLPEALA
Protocol: For labeling, 100 µM Sirtuin were incubated with 200 µM fluorescein isothiocyanate (Thermo Fisher) in 20 mM HEPES pH 7.5, 150 mM NaCl over night at 4°C in the dark. Non-bound dye was removed using a Nap25 column (GE Healthcare). Dissociation constants were determined from microscale thermophoresis using a Monolith NT.115 (NanoTemper Technologies, Munich, Germany). […] Dissociation constants were determined by non-linear fitting in GraFit.

human Sirt3 = target: T2, human Sirt3 (Homo sapiens, UniProt Q9NTG7); test: Binding analysis by microscale thermophoresis, Sirt3
T2 construct: human Sirt3 (residues 114-380); 6x His tag with TEV protease cleavage site (N); made in house; host or cells: E. coli BL21DE3 Rosetta 2
T2 sequence (Q9NTG7 114-380): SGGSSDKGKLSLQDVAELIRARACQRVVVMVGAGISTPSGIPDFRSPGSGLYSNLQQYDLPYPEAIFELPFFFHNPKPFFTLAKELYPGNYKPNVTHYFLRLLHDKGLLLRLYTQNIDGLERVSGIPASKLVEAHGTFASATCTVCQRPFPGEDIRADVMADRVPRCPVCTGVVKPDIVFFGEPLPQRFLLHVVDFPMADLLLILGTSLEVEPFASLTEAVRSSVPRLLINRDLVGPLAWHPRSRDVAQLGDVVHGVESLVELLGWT
Protocol: Non-bound dye was removed using a Nap25 column (GE Healthcare). Dissociation constants were determined from microscale thermophoresis using a Monolith NT.115 (NanoTemper Technologies, Munich, Germany). […] Dissociation constants were determined by non-linear fitting in GraFit.

Sirt3 = details: read-out: KM apparent affinity for cosubstrate; cited from earlier work
Sirt5Zf = target: T3, Sirt5Zf (Danio rerio, UniProt Q6DHI5); test: MS-based peptide deacylation assay, zebrafish Sirt5; assay type: biochemical; details: deacetylation, CPS1 peptide (Fig. S3)
T3 construct: zebrafish Sirt5 (residues 30- 298); 6x His tag with TEV protease cleavage site (N); made in house; host or cells: E. coli BL21DE3 Rosetta 2
T3 sequence (Q6DHI5 30-298): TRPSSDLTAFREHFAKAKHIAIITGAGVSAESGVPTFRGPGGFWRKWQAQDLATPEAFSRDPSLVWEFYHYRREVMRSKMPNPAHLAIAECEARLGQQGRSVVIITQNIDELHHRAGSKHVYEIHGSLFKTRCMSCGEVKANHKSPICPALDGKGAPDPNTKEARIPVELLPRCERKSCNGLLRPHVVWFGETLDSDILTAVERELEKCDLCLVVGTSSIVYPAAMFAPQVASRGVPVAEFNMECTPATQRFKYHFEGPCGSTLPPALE
Protocol: (§1) Samples were diluted with 0.1% formic acid and filtered using 10 kDa cutoff concentrators. Samples were analyzed on an LC-ESI-MS system consisting of a Prominence HPLC (Shimadzu, Duisburg, Germany) with Sil20AC autosampler connected to an LTQ XL mass spectrometer (Thermo Fisher, Bremen, Germany). […] Extracted ion chromatograms (XICs) with mass windows of ±2 m/z were generated for the acylated and deacylated peptide, and peak areas were determined using automatic peak area detection of the Xcalibur Qual Browser module and further analyzed with Excel (Microsoft, Seattle, USA) or GraFit (Erithacus Software, West Sussex, UK).

Sir2Af2-Met70Arg = Sir2Af2-Met70Arg (Archaeoglobus fulgidus, UniProt O30124, M70R); test: MS-based peptide deacylation assay, Sir2Af2-Met70Arg variant; details: for IC50: IC50 nicotinamide inhibition
Sir2Af2-Met70Arg, sequence (O30124 whole entry M70R): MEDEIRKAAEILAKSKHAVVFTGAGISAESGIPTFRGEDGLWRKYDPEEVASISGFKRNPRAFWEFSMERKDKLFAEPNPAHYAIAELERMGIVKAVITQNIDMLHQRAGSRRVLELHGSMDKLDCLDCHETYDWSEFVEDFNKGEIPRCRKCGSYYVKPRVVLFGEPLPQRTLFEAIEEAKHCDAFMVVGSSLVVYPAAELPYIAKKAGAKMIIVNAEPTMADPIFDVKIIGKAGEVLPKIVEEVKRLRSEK
Protocol: as §1

Sir2Af2 = target: T4, Sir2Af2 (Archaeoglobus fulgidus, UniProt O30124); test: MS-based peptide deacylation assay, Sir2Af2 wt; assay type: biochemical; details: for IC50: IC50 nicotinamide inhibition; for normalized desuccinylation [%]: succinylated Prx1-Lys197
T4 construct: host or cells: E. coli BL21DE3 Rosetta2
T4 sequence (O30124 1-253): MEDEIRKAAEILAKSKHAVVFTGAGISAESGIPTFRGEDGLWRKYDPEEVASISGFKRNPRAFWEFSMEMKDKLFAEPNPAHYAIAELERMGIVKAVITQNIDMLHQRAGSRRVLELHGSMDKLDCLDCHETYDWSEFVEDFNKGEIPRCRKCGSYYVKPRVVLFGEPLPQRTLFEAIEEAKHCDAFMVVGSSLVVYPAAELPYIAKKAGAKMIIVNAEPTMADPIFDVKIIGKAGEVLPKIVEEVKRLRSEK
Protocol: as §1

human Sirt5 [2] = target: T5, human Sirt5 (human, UniProt Q9NXA8 37-310, labelled with fluorescein isothiocyanate (sites not given)); test: MST; ligand (peptide) titrated to 100 nM fluorescein-labelled Sirtuin; mixtures preincubated 30 min at room temperature; Monolith NT.115; non-linear fitting in GraFit; details: both partners purified
T5 construct: Sirt5, human; a 'gene fragment' cloned into pET151/D-Topo
T5 sequence (looked up): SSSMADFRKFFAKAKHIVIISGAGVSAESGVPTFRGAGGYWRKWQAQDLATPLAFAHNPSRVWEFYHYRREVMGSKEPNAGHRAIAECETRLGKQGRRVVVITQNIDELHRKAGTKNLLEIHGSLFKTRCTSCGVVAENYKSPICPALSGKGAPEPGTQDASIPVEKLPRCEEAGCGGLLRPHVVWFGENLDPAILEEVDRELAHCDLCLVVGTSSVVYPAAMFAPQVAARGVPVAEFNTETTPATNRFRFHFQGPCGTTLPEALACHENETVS

[3] = 25 µM substrate peptide, read-out: Kd for NAD^+ under peptide saturation
[4] = in presence of 0.5 mM nicotinamide, read-out: Kd(NAD^+)
[5] = no nicotinamide, no peptide, read-out: Kd(NAD^+)
[6] = read-out: normalized deacetylation [%]

Kd (human Sirt5 [1]; [3]): 200 ± 70 µM
Kd (human Sirt5 [1]; [4]): 920 ± 230 µM
Kd (human Sirt5 [1]; [5]): 980 ± 280 µM
Kd (human Sirt3; [3]): 260 ± 150 µM
Kd (human Sirt3; [4]): 830 ± 240 µM
Kd (human Sirt3; [5]): 710 ± 230 µM
Molecule: NC(=O)c1ccc[n+]([C@@H]2O[C@H](COP(=O)([O-])OP(=O)(O)OC[C@H]3O[C@@H](n4cnc5c(N)ncnc54)[C@H](O)[C@@H]3O)[C@@H](O)[C@H]2O)c1 [NAD^+]
Km (Sirt3): 100 to 600 µM

Molecule: NC(=O)c1cccnc1 [nicotinamide]
IC50 (Sirt5Zf): 6900 ± 500 µM
IC50 (Sir2Af2-Met70Arg; deacetylase activity, acetylated Prx1-Lys197): > 10000 µM
IC50 (Sir2Af2-Met70Arg; desuccinylase activity, succinylated Prx1-Lys197): 2800 ± 900 µM
remaining activity at 1 µM (Sir2Af2-Met70Arg; [6]): 100%
remaining activity at 10 µM (Sir2Af2-Met70Arg; [6]): 98.1%
remaining activity at 100 µM (Sir2Af2-Met70Arg; [6]): 96.1%
remaining activity at 500 µM (Sir2Af2-Met70Arg; [6]): 69.7%
remaining activity at 1000 µM (Sir2Af2-Met70Arg; [6]): 86.4%
remaining activity at 5000 µM (Sir2Af2-Met70Arg; [6]): 71.4%
remaining activity at 10000 µM (Sir2Af2-Met70Arg; [6]): 52.6%
IC50 (Sir2Af2; acetyl-CPS1 substrate): 5800 ± 1600 µM
IC50 (Sir2Af2; acetyl-Prx1 substrate): 1300 ± 300 µM
IC50 (Sir2Af2; deacetylation, p53 peptide (Fig. S3)): 2100 ± 150 µM
IC50 (Sir2Af2; succinyl-CPS1 substrate): 6600 ± 500 µM
IC50 (Sir2Af2; succinyl-Prx1 substrate): > 10000 µM
remaining activity at 1 µM (Sir2Af2; NAM 1 µM, acetylated Prx1-Lys197, wt, read-out: normalized deacetylation [%]): 88.7%
normalized desuccinylation [%] (Sir2Af2; NAM 1 µM, wt): 100.0%
remaining activity at 10 µM (Sir2Af2; NAM 10 µM, acetylated Prx1-Lys197, wt, read-out: normalized deacetylation [%]): 101%
normalized desuccinylation [%] (Sir2Af2; NAM 10 µM, wt): 96.1%
remaining activity at 100 µM (Sir2Af2; NAM 100 µM, acetylated Prx1-Lys197, wt, read-out: normalized deacetylation [%]): 93%
normalized desuccinylation [%] (Sir2Af2; NAM 100 µM, wt): 95.7%
remaining activity at 500 µM (Sir2Af2; NAM 500 µM, acetylated Prx1-Lys197, wt, read-out: normalized deacetylation [%]): 65.4%
remaining activity at 1000 µM (Sir2Af2; NAM 1000 µM, acetylated Prx1-Lys197, wt, read-out: normalized deacetylation [%]): 49.8%
normalized desuccinylation [%] (Sir2Af2; NAM 1000 µM, wt): 88.3%
remaining activity at 5000 µM (Sir2Af2; NAM 5000 µM, acetylated Prx1-Lys197, wt, read-out: normalized deacetylation [%]): 30.4%
normalized desuccinylation [%] (Sir2Af2; NAM 5000 µM, wt): 78.1%
normalized desuccinylation [%] (Sir2Af2; NAM 10000 µM, wt): 69.1%

Kd (human Sirt5 [2]): 2.1 ± 0.7 µM
B1: ACS2-Lys642 peptide (TRSG(acK)VMR) (peptide)
peptide: TRSGK(Ac)VMR
notes: acetyl-CoA synthetase 2 (ACS2), stretch around the acetylation site Lys642; also called ACS2 peptide; source: synthetic peptide, bought: GL Biochem (Shanghai)

Kd (human Sirt5 [2]): 2.3 ± 1.5 µM
B2: CPS1-Lys527 peptide (FKRGVL(acK)EYGVKV) (peptide)
peptide: FKRGVLK(Ac)EYGVKV
notes: carbamoyl phosphate synthetase 1 (CPS1), stretch around the acetylation site Lys527; also called CPS1 peptide; source: synthetic peptide, bought: GL Biochem (Shanghai)
